# Test results taken from ChEMBL document CHEMBL1649495, “Sitafloxacin activity against Helicobacter pylori isolates, including those with gyrA mutations” (2009).
# Assays:
# Type in all cases: functional
# Helicobacter pylori [1] = test: Antibacterial activity against Helicobacter pylori clinical isolates harboring gyrA Asn87 mutant gene by agar dilution method
# Helicobacter pylori [2] = test: Antibacterial activity against Helicobacter pylori clinical isolates harboring gyrA Asp91 mutant gene by agar dilution method
# Helicobacter pylori [3] = test: Antibacterial activity against Helicobacter pylori clinical isolates harboring mutation in gyrA gene by agar dilution method
# Helicobacter pylori [4] = test: Antibacterial activity against Helicobacter pylori clinical isolates harboring gyrA gene by agar dilution method
SMILES,MIC50 (Helicobacter pylori [1]) [µg/mL],MIC90 (Helicobacter pylori [1]) [µg/mL],MIC50 (Helicobacter pylori [2]) [µg/mL],MIC90 (Helicobacter pylori [2]) [µg/mL],MIC (Helicobacter pylori [3]) [µg/mL],MIC50 (Helicobacter pylori [4]) [µg/mL],MIC90 (Helicobacter pylori [4]) [µg/mL]
C[C@H]1NCc2cc(-c3ccc4c(=O)c(C(=O)O)cn(C5CC5)c4c3OC(F)F)ccc21 [GARENOXACIN],0.5,1,0.5,1,≤ 0.015,0.03,0.06
C[C@H]1COc2c(N3CCN(C)CC3)c(F)cc3c(=O)c(C(=O)O)cn1c23.C[C@H]1COc2c(N3CCN(C)CC3)c(F)cc3c(=O)c(C(=O)O)cn1c23.O [LEVOFLOXACIN],8,16,4,8,0.12,0.25,0.25
N[C@@H]1CN(c2c(F)cc3c(=O)c(C(=O)O)cn([C@@H]4C[C@@H]4F)c3c2Cl)CC12CC2 [SITAFLOXACIN ANHYDROUS],0.25,0.5,0.12,0.25,≤ 0.015,0.03,0.03
